The values below come from US12636313B2, “Nutraceutical or pharmaceutical composition comprising iron pyrophosphate for treating and/or preventing iron deficiency conditions or diseases” (NEILOS S.R.L., priority 2019, dated 2026).

The subject of data set [1] is subjects with advanced cancer and plasma iron levels below 60 μg/dL. As to conditions: 30 mg/day, 30-day treatment, 42 subjects with advanced cancer; cited from earlier work.
The conditions of data set [2]: after 120 minutes in sham gastric environment, 0.1 M HCl, 37° C., 75 rpm, six replicates. The procedure: 1 g of sample was weighed and introduced into the container of the dissolving apparatus containing 900 mL of 0.1 M HCl. The dissolution was performed for 2 h at 37° C. and 75 rpm. After dissolution, 1 mL of sample was diluted to 50 mL with 0.1 M HCl. The preparation was performed in six replicates for each sample.

Consider `O=P([O-])([O-])OP(=O)([O-])[O-].O=P([O-])([O-])OP(=O)([O-])[O-].O=P([O-])([O-])OP(=O)([O-])[O-].[Fe+3].[Fe+3].[Fe+3].[Fe+3]` [iron pyrophosphate as such, iron pyrophosphate], for which, in data set [1], the ferritinaemia level entry is recorded as “enhanced”, the haemoglobinaemia level entry is reported as “enhanced”, the side effects result is “without appearance of side effects” and the sideraemia level entry was “enhanced”. Also, the “amount of iron released” value in data set [2] was 7.5 g per 100 g of formulation.
